# Read-outs that look alike come from different tables or passages of the source.
# Legend:
# [1] = molecular target: IMP-1 (Serratia marcescens, UniProt P52699); experiment: Enzyme activity: determination of IC50, fluorescence assay with CCF2-FA substrate; assay type: biochemical; conditions: CCF2-FA 1.25 μM, 2 hours at 25° C., read-out: IMP1 IC50
# Summary of the method: (§1)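 Final enzyme levels differed by target: 1 pM NDM-1, 2 pM IMP-1, 30 pM VIM-1. Each was incubated 2 hours at 25° C with test compound and 1.25 μM CCF2-FA, and 460 nm fluorescence (405 nm excitation) was fitted by 4-parameter curve to obtain IC50.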
# [2] = molecular target: NDM-1 (Klebsiella pneumoniae, UniProt C7C422); experiment: as above; assay type: biochemical; conditions: CCF2-FA 1.25 μM, 2 hours at 25° C., read-out: NDM1 IC50
# Summary of the method: as §1
# [3] = molecular target: VIM-1 (Pseudomonas aeruginosa, UniProt A0A0F7KYQ8); experiment: as above; assay type: biochemical; conditions: CCF2-FA 1.25 μM, 2 hours at 25° C., read-out: VIM1 IC50
# Summary of the method: as §1
# [4] = test system: Escherichia coli expressing NDM-1 (CLB30016); experiment: Antibiotic potentiation activity: synergistic concentration (MITC95) with imipenem, growth by OD600; assay type: cell-based
# Summary of the method: (§2)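 Colonies from overnight agar plates (35 °C) were suspended in saline and diluted 1:100 into 1.1× CAMHB. Inhibitor (final 200 μM to 0.195 μM) was combined with imipenem at 1 or 4 μg/ml, incubated 22–24 h at 35 °C, and absorbance read; MITC95 is the lowest inhibitor concentration giving 95% growth inhibition.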
# [5] = test system: Klebsiella pneumoniae expressing VIM-1 (IHMA599644); experiment: as above; assay type: cell-based
# Summary of the method: as §2
# [6] = test system: Serratia marcescens expressing IMP-1 (CL5741); experiment: as above; assay type: cell-based
# Summary of the method: as §2
# [7] = 95% inhibition of bacterial growth, strain CLB30016
# [8] = 95% inhibition of bacterial growth, strain IHMA599644
# [9] = 95% inhibition of bacterial growth, strain CL5741
# [10] = E. coli CLB30016 (NDM-1), 95% inhibition of growth
# [11] = K. pneumoniae IHMA599644 (VIM-1), 95% inhibition of growth
# [12] = S. marcescens CL5741 (IMP-1), 95% inhibition of growth
# IMP-1, sequence (P52699 19-246, looked up, species assumed): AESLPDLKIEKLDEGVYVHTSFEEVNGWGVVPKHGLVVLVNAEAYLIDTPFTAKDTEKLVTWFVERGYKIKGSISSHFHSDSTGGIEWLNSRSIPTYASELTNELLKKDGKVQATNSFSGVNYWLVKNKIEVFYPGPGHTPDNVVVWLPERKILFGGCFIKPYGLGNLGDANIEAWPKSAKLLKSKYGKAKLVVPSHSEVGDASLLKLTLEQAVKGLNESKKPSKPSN
# NDM-1, sequence (C7C422 29-270, looked up, species assumed): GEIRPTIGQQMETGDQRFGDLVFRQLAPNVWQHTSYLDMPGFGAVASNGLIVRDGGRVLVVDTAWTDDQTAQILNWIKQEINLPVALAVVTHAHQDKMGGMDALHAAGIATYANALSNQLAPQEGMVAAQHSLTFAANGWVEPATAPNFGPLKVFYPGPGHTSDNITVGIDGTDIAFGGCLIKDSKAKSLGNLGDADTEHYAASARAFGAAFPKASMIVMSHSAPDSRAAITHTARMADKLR
Compound,IC50 ([1]; enzyme 2 pM) [nM],IC50 ([2]; enzyme 1 pM) [nM],IC50 ([3]; enzyme 30 pM) [nM],"NDM1 EC30016 MITC95 [4, 7] [µM]","VIM1 KP599644 MITC95 [5, 8] [µM]","IMP1 SM5741 MITC95 [6, 9] [µM]",IC50 ([1]; IMP-1 enzyme 2 pM) [nM],IC50 ([2]; NDM-1 enzyme 1 pM) [nM],IC50 ([3]; VIM-1 enzyme 30 pM) [nM],"NDM1 EC30016 MITC95 [4, 10] [µM]","VIM1 KP599644 MITC95 [5, 11] [µM]","IMP1 SM5741 MITC95 [6, 12] [µM]"
"CCC[C@H](C(=O)O)[C@H](Cc1ccc(N)nc1)c1nnn[nH]1 [Example 114, (S)-2-((S)-2-(6-aminopyridin-3-yl)-1-(1H-tetrazol-5-yl)ethyl)pentanoic acid]",3700,180,6.2,0.39,2.3,18.8,–,–,–,–,–,–
"CCC[C@H](C(=O)O)[C@H](Cc1cccc(-c2cncc(CN3CCCCC3)c2)c1)c1nn[nH]n1 [Example 347, (2S)-2-[(1S)-2-{3-[5-(piperidin-1-ylmethyl)pyridin-3-yl]phenyl}-1-(2H-tetrazol-5-yl)ethyl]pentanoic acid]",–,–,–,–,–,–,1600,160,6.5,50,25,25
"CC(C)C[C@H](C(=O)O)[C@H](Cc1ccc(N2CC3(CNC(=O)C3)C2)nc1)c1nnn[nH]1 [Example 328, (2S)-4-methyl-2-[(1S)-2-[6-(7-oxo-2,6-diazaspiro[3.4]oct-2-yl)pyridin-3-yl]-1-(1H-tetrazol-5-yl)ethyl]pentanoic acid]",–,–,–,–,–,–,1100,260,12,9.4,50,50
"CC(C)C[C@H](C(=O)O)[C@H](Cc1ccc(C2=CCNC2)c(F)c1)c1nn[nH]n1 [Example 452, 3-(4-((2S,3S)-3-carboxy-5-methyl-2-(2H-tetrazol-5-yl)hexyl)-2-fluorophenyl)-2,5-dihydro-1H-pyrrol-1-ium 2,2,2-trifluoroacetate]",–,–,–,–,–,–,222,93.1,0.937,9.375,12.5,9.375
"CC(C)C[C@H](C(=O)O)[C@H](Cc1cnc(NCCO)s1)c1nnn[nH]1 [Example 137, (S)-2-((S)-2-(2-((2-hydroxyethyl)amino)thiazol-5-yl)-1-(1H-tetrazol-5-yl)ethyl)-4-methylpentanoic acid]",300,110,3.5,6.2,37,12.5,–,–,–,–,–,–
"CCC[C@H](C(=O)O)[C@H](Cc1ccc(NCCN2CCN(C(C)C)CC2)cc1)c1nn[nH]n1 [Example 219, (2S)-2-[(1S)-2-[4-({2-[4-(1-methylethyl)piperazin-1-yl]ethyl}amino)phenyl]-1-(2H-tetrazol-5-yl)ethyl]pentanoic acid]",1000,210,93,25,100,25,–,–,–,–,–,–
"CC(C)C[C@H](C(=O)O)[C@H](Cc1ccc(Oc2ccc(C(C)N)nc2)nc1)c1nn[nH]n1 (stereo partly drawn) [Example 380, (2S)-2-[(1S)-2-(6-{[6-(1-aminoethyl)pyridin-3-yl]oxy}pyridin-3-yl)-1-(2H-tetrazol-5-yl)ethyl]-4-methylpentanoic acid]",–,–,–,–,–,–,64,12,2.4,4.7,50,4.7
"CC(C)C[C@H](C(=O)O)[C@H](Cc1ccc(N2CCCC2CO)nc1)c1nnn[nH]1 (stereo partly drawn) [Example 315, (2S)-2-[(1S)-2-{6-[2-(hydroxymethyl)pyrrolidin-1-yl]pyridin-3-yl}-1-(1H-tetrazol-5-yl)ethyl]-4-methylpentanoic acid]",–,–,–,–,–,–,61,67,6,3.1,38,6.2
"CC(C)C[C@H](C(=O)O)[C@H](Cc1ccc(-c2ccc3c(c2)CNC3)cn1)c1nnn[nH]1 [Example 99, (S)-2-((S)-2-(5-(isoindolin-5-yl)pyridin-2-yl)-1-(1H-tetrazol-5-yl)ethyl)-4-methylpentanoic acid]",3900,600,350,31,100,75,–,–,–,–,–,–
"CCC[C@H](C(=O)O)[C@H](Cc1ccc(C2(O)CCNC2)cc1)c1nnn[nH]1.O=C(O)C(F)(F)F (stereo partly drawn) [Example 432, 3-(4-((2S,3S)-3-carboxy-2-(1H-tetrazol-5-yl)hexyl)phenyl)-3-hydroxypyrrolidin-1-ium 2,2,2-trifluoroacetate]",–,–,–,–,–,–,1010,141,5.58,9.375,12.5,12.5
"CCC[C@H](C(=O)O)[C@H](Cc1ccc(C(=O)N2CCC(N)CC2)cc1)c1nnn[nH]1 [Example 278, (2S)-2-[(1S)-2-{4-[(4-aminopiperidin-1-yl)carbonyl]phenyl}-1-(1H-tetrazol-5-yl)ethyl]pentanoic acid]",–,–,–,–,–,–,200,10,120,12.5,50,6.2
"CC(C)[C@H](C(=O)O)[C@H](Cc1ccc(NCCO)cn1)c1nnn[nH]1 [Example 139, (2S,3S)-4-(5-((2-hydroxyethyl)amino)pyridin-2-yl)-2-isopropyl-3-(1H-tetrazol-5-yl)butanoic acid]",1900,56,34,0.39,12.5,38,–,–,–,–,–,–
"CC(C)C[C@H](C(=O)O)[C@H](Cc1ccc(N2CCCC2c2ccccc2)nc1)c1nnn[nH]1 (stereo partly drawn) [Example 303, (2S)-4-methyl-2-[(1S)-2-[6-(2-phenylpyrrolidin-1-yl)pyridin-3-yl]-1-(1H-tetrazol-5-yl)ethyl]pentanoic acid]",–,–,–,–,–,–,96,14,3.9,18.8,200,4.7
"CCC[C@H](C(=O)O)[C@H](Cc1ccc(NCC(=O)N(C)C)cc1)c1nn[nH]n1 [Example 218, (2S)-2-[(1S)-2-(4-{[2-(dimethylamino)-2-oxoethyl]amino}phenyl)-1-(2H-tetrazol-5-yl)ethyl]pentanoic acid]",460,40,21,31,50,25,–,–,–,–,–,–
"CC(C)(C)[C@H](C(=O)O)[C@H](Cc1ccc(O)nc1)c1nnn[nH]1 [Example 421, (2R,3S)-2-(tert-butyl)-4-(6-hydroxypyridin-3-yl)-3-(1H-tetrazol-5-yl)butanoic acid]",–,–,–,–,–,–,156,157,24.9,25,25,100
"O=C(O)[C@@H](CCCC1CCNCC1)[C@H](Cc1ccc(C2=CCNC2)cc1)c1nnn[nH]1 [Example 433, (S)-2-((S)-2-(4-(2,5-dihydro-1H-pyrrol-3-yl)phenyl)-1-(1H-tetrazol-5-yl)ethyl)-5-(piperidin-4-yl)pentanoic acid compound with 222,-trifluroacetic acid (1:2)]",–,–,–,–,–,–,2000,87,10.1,12.5,12.5,100
"CCC[C@H](C(=O)O)[C@H](Cc1cccc(N2CC[C@H](N)C2)c1)c1nn[nH]n1 [Example 369, (2S)-2-[(1S)-2-{3-[(3S)-3-aminopyrrolidin-1-yl]phenyl}-1-(2H-tetrazol-5-yl)ethyl]pentanoic acid]",–,–,–,–,–,–,2300,150,3.2,12.5,12.5,50
"CC(C)C[C@H](C(=O)O)[C@H](Cc1ccc(CN2CCC(O)C2)c(F)c1)c1nn[nH]n1.O=C(O)C(F)(F)F (stereo partly drawn) [Example 439, 5-((2S,3S)-3-carboxy-1-(3-fluoro-4-((3-hydroxypyrrolidin-1-yl)methyl)phenyl)-5-methylhexan-2-yl)-2H-tetrazol-3-ium 2,2,2-trifluoroacetate]",–,–,–,–,–,–,483,225,4.32,31.25,37.5,37.5
